From patent publication US20050266096A1, “New synergetic compositions of vitamins, minerals and trace-elements to stimulate the elimination of intra-cellular lipid deposits” (priority 2004, published 2005)

Test system: vascular smooth muscle cells
Assay: Reduction of intracellular lipid deposits in lipid-loaded cell cultures
Assay type: cell-based
Settings: for effect on the reduction/elimination of intracellular lipid deposits (in words): tables 1-3; for Percent decrease in intracellular lipids: individual element, concentration per row in μg/ml (0.016% RDA), 3 days after exposure, vs untreated control cultures = 100% lipid deposits, n = 24
Protocol: To evaluate the effects of vitamins, minerals & trace-elements on the cellular capacity to eliminate intracellular lipid deposits, the cultures of vascular smooth muscle cells were prepared on plastic cover slips in vitro as described by Shrivastava at al (Meth Expt Find,1994).
A 50-60% cell monolayer was obtained within 4 days of culture. The hyperlipidemic rabbit serum was added to the culture medium, cells were incubated at 37° C.-5% CO2 for 48 h and the presence of intracellular cytoplasmic lipid deposit was quantified (considered 100% lipid deposits) . The culture medium was then replaced by a predefined blank medium containing no vitamins, minerals & trace-elements containing 1% fetal calf serum. Desired concentrations of vitamins, minerals and trace-elements were prepared in the predefined control culture medium by dissolving the test substances in the medium and by replacing the culture medium by the test product containing medium.
The in vitro cytoxicity of each vitamin, mineral and trace-element was determined. […]
The results were expressed a mean percentage decrease in intracellular lipid deposits compared to the untreated control cultures considered as containing 100% lipid deposits.

In the case of `Nc1nc2ncc(CNc3ccc(C(=O)N[C@@H](CCC(=O)O)C(=O)O)cc3)nc2c(=O)[nH]1` [Vitamin B9, folic acid], the “effect on the reduction/elimination of intracellular lipid deposits (in words)” value (“effect on the reduction/elimination” for short) is reported as “minor effect”.

With `CC(=O)Oc1c(C)c(C)c2c(c1C)CCC(C)(CCC[C@H](C)CCC[C@H](C)CCCC(C)C)O2` (stereo partly drawn) [Vitamin E, tocopherol acetate] the “effect on the reduction/elimination” value was “minor effect”.

`[O-2].[Zn+2]` [Zinc, zinc oxide] was tested, and the “Percent decrease in intracellular lipids” value was 16.3 ± 4.4% and the “effect on the reduction/elimination” value was “minor effect”.

`[O]=[Mg]` [Magnesium, magnesium oxide] was tested, and the “Percent decrease in intracellular lipids” value was 22.0 ± 5.2% and the “effect on the reduction/elimination” value was “minor effect”.

For `[Cl-].[K+]` [Potassium, potassium chloride], the “Percent decrease in intracellular lipids” value was 0.0%.

For iron gluconate, the “Percent decrease in intracellular lipids” value was 6.3 ± 2.7%.

For `[I-].[K+]` [Iodine, potassium iodide], the “Percent decrease in intracellular lipids” value was 0.0%.

In the case of calcium gluconate, the “Percent decrease in intracellular lipids” value is reported as 0.0%.

`CC1=C(/C=C/C(C)=C/C=C/C(C)=C/C=C/C=C(C)/C=C/C=C(C)/C=C/C2=C(C)CCCC2(C)C)C(C)(C)CCC1` [Vitamin A, beta carotene] was tested, and the “effect on the reduction/elimination” value was “minor effect”.

In the case of `Cc1cc2nc3c(=O)[nH]c(=O)nc-3n(C[C@H](O)[C@H](O)[C@H](O)CO)c2cc1C` [Vitamin B2, riboflavin], the “effect on the reduction/elimination” value is reported as “minor effect”.
